“Also recorded” adds a separate entry of the source.
How the values were obtained:
endogenous TMEM16A = experiment: Iodide quenching of YFP in HT29 cells stimulated with ionomycin; type: cell-based
Method: FIG. 15: Inhibition of TMEM16A and TMEM16F by niclosamide. • A) TMEM16A whole cell currents in overexpressing HEK293 cells. […] Rate of YFP quenching (arbitrary units (au/second), when applying 20 mM iodide to the extracellular bath solution. HT29 cells stably overexpressing YFP were stimulated with […] ionomycin. 100,000 cells were seeded/well. Mean±SEM; (number of experiments) #significant inhibition when compared to the absence of the inhibitor (p<0.05; unpaired t-test); *significant activation by UTP (paired t-test).
Similar to TMEM16A, also overexpressed TMEM16F was inhibited by niclosamide (FIG. 15D). The effect of niclosamide was also examined on endogenous TMEM16A expressed in HT29 colonic carcinoma cells, which were stably transfected with iodide-sensitive yellow fluorescent protein (YFP). TMEM16A was activated by ionomycin and TMEM16A currents were measured as iodide quenching.

TMEM16A or TMEM16F = experiment: Expression of TMEM16A / TMEM16F after niclosamide; type: cell-based
colon = experiment: Niclosamide applied in vivo (ip or gavage), then colon perfusion and PAS staining; parameters: species or system mouse; conditions: for ATP-induced release of mucus: three days before perfusion, 100 μM ATP
Method: FIG. 18: Effect of niclosamide on intestinal mucus release. • A) Acute mucus secretion in excised wt colon activated by methacholine or ATP, respectively, and inhibition by acute perfusion with niclosamide (niclosamide; 10 μM). • B-D) Effect of intraperitoneal injection of niclosamide (20 mg/kg/day) on PAS staining (B,C) and acute mucus discharge induced by perfusion with 100 μM ATP (D). • E-G) Effect of application of niclosamide by gavage (20 mg/kg/day) on PAS staining (E,F) and acute mucus discharge induced by perfusion with 100 μM ATP (G). Mean±SEM; #significant difference when compared to -niclosamide (unpaired t-test); (n) number of perfused colons and PAS stainings analyzed, respectively. Bars indicate 50 μm.
It was examined whether niclosamide inhibits intestinal mucus secretion. To this end, niclosamide was added to the perfusate. […] Niclosamide was applied in vivo by intraperitoneal (ip) injection, or was applied orally by gavage three days before intestinal perfusion. […] TMEM16F plays a crucial role for intracellular Ca^2+ signaling. The present inventors detected reduced Ca^2+ increase upon ATP-stimulation of freshly isolated crypt cells from Vil1-Cre TMEM16F^flox/flox mice. In contrast, CCH-induced Ca^2+ rise was not affected. […] Increase in FM4-64 fluorescence in the plasma membrane is a marker for membrane exocytosis. The present inventors detected that ATP-stimulation (but not cholinergic stimulation) of HEK293 cells expressing TMEM16F induced FM4-64 fluorescence, i.e. exocytosis.

TMEM16A [1] = target: T1, TMEM16A (Homo sapiens, UniProt Q5XXA6); experiment: Whole cell currents in HEK293 cells expressing TMEM16A (patch clamp); type: cell-based; parameters: expressed in transfected cells; host or cells: HEK293 cells; conditions: overexpressing HEK293 cells; UTP 100 μM
T1 sequence (Q5XXA6 1-986): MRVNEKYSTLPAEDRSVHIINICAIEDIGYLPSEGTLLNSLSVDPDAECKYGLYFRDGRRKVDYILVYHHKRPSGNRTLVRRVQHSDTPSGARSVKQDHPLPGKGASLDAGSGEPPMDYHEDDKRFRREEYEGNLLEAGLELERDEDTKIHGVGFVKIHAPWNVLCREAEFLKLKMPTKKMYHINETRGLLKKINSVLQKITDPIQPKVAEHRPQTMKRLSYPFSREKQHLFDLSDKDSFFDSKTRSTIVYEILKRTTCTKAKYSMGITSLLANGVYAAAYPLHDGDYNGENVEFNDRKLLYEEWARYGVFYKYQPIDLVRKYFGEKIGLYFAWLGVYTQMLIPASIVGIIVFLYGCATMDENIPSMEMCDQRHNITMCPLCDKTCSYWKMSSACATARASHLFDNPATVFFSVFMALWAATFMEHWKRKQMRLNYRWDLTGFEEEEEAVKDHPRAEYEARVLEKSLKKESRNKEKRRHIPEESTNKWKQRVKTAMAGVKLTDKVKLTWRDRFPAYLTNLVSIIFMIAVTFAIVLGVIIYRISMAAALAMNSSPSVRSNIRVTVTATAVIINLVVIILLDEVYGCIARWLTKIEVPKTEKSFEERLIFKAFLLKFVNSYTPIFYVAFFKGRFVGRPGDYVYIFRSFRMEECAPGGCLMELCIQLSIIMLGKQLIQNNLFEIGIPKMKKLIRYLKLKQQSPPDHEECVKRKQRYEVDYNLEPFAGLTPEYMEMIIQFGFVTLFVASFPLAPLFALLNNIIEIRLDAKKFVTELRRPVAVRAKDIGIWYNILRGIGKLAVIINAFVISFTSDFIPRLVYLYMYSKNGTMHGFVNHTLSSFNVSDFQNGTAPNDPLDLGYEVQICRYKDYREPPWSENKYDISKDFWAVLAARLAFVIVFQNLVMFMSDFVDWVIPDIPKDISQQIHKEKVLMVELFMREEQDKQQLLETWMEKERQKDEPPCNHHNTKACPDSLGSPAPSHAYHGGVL
Method: FIG. 14: The TMEM16-inhibitor niflumic acid attenuates inflammatory airway disease. • A,B) OVA-sensitization induced pronounced goblet cell metaplasia as indicated by alcian blue positivity. Exposure to carbachol (CCH, 25 mg/ml, nebulizer) induced release of mucus and airway […]. Bars indicate […]. […] Mean±SEM; *significant inhibition by NFA (paired ttest). # significant difference when compared to OVA (unpaired t-test). (n) number of airways analysed or number of cells examined.
FIG. 15: Inhibition of TMEM16A and TMEM16F by niclosamide. • A) TMEM16A whole cell currents in overexpressing HEK293 cells. […]
OVA-induced allergic airway inflammation in mice caused pronounced airway goblet cell metaplasia. […] The two main TMEM16 paralogs expressed in airway epithelial and smooth muscle cells, TMEM16A and TMEM16F, were expressed in HEK293 cells and the whole cell currents upon activation by the Ca^2+ ionophore ionomycin (Iono) were measured. […]
Similar to TMEM16A, also overexpressed TMEM16F was inhibited by niclosamide (FIG. 15D). […] TMEM16A was activated by ionomycin and TMEM16A currents were measured as iodide quenching.

TMEM16A [2] = target: T1, TMEM16A; parameters: expressed in transfected cells; host or cells: HEK293 cells; conditions: Miner et al. [3]; cited from earlier work

O=C(Nc1ccc([N+](=O)[O-])cc1Cl)c1cc(Cl)ccc1O [niclosamide, 5-chloro-N-(2-chloro-4-nitrophenyl)-2-hydroxybenzamide]
potency compared with CaCCinhAO1 or dichlorophen (endogenous TMEM16A; HT29 YFP iodide quenching): more potent
inhibition of endogenous TMEM16A (iodide quenching of YFP) (endogenous TMEM16A; HT29 cells stably expressing YFP, ionomycin, 20 mM iodide): low nanomolar range
expression of either TMEM16A or TMEM16F (TMEM16A or TMEM16F): did not change
ATP-induced release of mucus (colon; intraperitoneal injection 20 mg/kg/day): completely inhibited
mucus accumulation in goblet cells (PAS staining) (colon; ip or oral niclosamide): did not accumulate
ATP-induced release of mucus (colon; oral by gavage 20 mg/kg/day): completely inhibited
TMEM16A outward currents activated by purinergic stimulation (TMEM16A [1]): inhibitory effect; also recorded: Concentration-dependent inhibition
TMEM16A inhibition (TMEM16A [2]): inhibitors of TMEM16A

— patent publication US20210283110A1, “COMPOUND FOR USE IN THE TREATMENT OF A DISEASE CHARACTERIZED BY DYSREGULATED MUCUS PRODUCTION AND/OR SECRETION” (UNIVERSITÄT REGENSBURG, priority 2018, published 2021)
